Reference: patent publication US20250270227A1, “CAMPTOTHECIN DERIVATIVE, AND PHARMACEUTICAL COMPOSITION AND USE THEREOF” (SIMCERE ZAIMING PHARMACEUTICAL CO., LTD., priority 2021, published 2025)
Where two headings read alike, the source gives them in different places.

Key:
Type in all cases: in vitro ADME
CYP2C9 = CYP2C9 (Homo sapiens (Human), UniProt P11712); assay: Inhibitory effect on CYP enzymatic activity in human liver microsomes
Procedure: (§1) The inhibition of CYP2C9, CYP2D6 and CYP3A4 enzymatic activities by the compounds of the present disclosure was determined by the following experimental method.
(§2) • 1. Human liver microsomes (Corning 452117) • 2. NADPH (Solarbio 705Y021) • 3. Positive substrates diclofenac (Sigma SLBV3438), dextromethorphan (TRC 3-EDO-175-1) and midazolam (Cerilliant FE01161704) • 4. Positive inhibitors sulfaphenazole (D. Ehrenstorfer GmbH 109012), quinidine (TCI WEODL-RE) and ketoconazole (Sigma 100M1091V) • 5. AB Sciex Triple Quad 5500 liquid chromatography-mass spectrometry
(§3) • 1. Preparation of 100 mM phosphate buffered saline (PBS): 7.098 g of Na2HPO4 was weighed, 500 mL of pure water was added and subjected to ultrasonic dissolution to obtain solution A. 3.400 g of KH2PO4 was weighed, 250 mL of pure water was added and subjected to ultrasonic dissolution to obtain solution B. Solution A was placed on a stirrer and solution B was slowly added until the pH value reached 7.4 to prepare 100 mM PBS buffer. • 2. Preparation of 10 mM NADPH solution with 100 mM PBS buffer. The 10 mM stock solution of the compound of the present disclosure was diluted with DMSO to obtain a 200× concentration of compound working solution (6000, 2000, 600, 200, 60, 20, 0 μM). The stock solution of positive inhibitors was diluted with DMSO to obtain a 200× concentration of positive inhibitor working solution (sulfaphenazole, 1000, 300, 100, 30, 10, 3, 0 μM; quinidine/ketoconazole, 100, 30, 10, 3, 1, 0.3, 0 μM). A 200× concentration of substrate working solution (120 μM diclofenac, 400 μM dextromethorphan, and 200 μM midazolam) was prepared with water, acetonitrile, or acetonitrile/methanol. • 3. 2 μL of 20 mg/ml liver microsome solution, 1 μL of substrate working solution, 1 μL of compound working solution and 176 μL of PBS buffer were taken, mixed uniformly, and pre-incubated in a 37° C. water bath for 15 min. To the positive control group was added 1 μL of sulfaphenazole, quinidine or ketoconazole working solution instead of compound working solution. A 10 mM NADPH solution was also pre-incubated in the 37° C. water bath for 15 min. After 15 min, 20 μL of NADPH was taken and added to each well to initiate the reaction, and the reaction was incubated at 37° C. for 5 min (CYP2C9), 20 min (CYP2D6) or 5 min (CYP3A4). Double samples were set for all incubation samples. After the corresponding time of incubation, 400 μL of glacial methanol containing internal standard was added to all samples to stop the reaction. The mixture was mixed uniformly by vortex and centrifuged at 3220 g for 40 min at 4° C. After the completion of the centrifugation, 100 μL of the supernatant was transferred to a loading plate, and 100 μL of ultrapure water was added and mixed uniformly for LC-MS/MS analysis.
(§4) The reduction in metabolite production in the administration group compared to the control group was compared by the ratio of sample peak area to internal standard peak area, and IC50 value was calculated by Excel XLfit 5.3.1.3.
(§5) The percent remaining activity was calculated by the following equation: […]

CYP2D6 = CYP2D6 (Homo sapiens (Human), UniProt P10635); assay: as above
CYP2D6, sequence (P10635 whole entry): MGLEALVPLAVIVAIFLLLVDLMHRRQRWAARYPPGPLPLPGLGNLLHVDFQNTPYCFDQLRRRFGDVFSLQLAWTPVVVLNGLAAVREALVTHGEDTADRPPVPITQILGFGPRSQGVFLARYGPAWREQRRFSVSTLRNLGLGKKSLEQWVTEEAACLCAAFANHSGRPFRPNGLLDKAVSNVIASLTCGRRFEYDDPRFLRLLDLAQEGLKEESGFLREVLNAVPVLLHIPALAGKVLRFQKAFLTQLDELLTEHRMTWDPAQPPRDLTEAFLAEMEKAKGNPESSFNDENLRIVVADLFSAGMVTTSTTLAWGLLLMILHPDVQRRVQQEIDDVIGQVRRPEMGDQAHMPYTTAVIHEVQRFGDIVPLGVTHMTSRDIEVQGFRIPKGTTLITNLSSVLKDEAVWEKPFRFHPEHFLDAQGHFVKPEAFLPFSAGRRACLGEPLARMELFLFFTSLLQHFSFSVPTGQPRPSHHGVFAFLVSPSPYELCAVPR
Procedure: as §1, §2, §3, §4, §5

CYP3A4 = CYP3A4 (Homo sapiens (Human), UniProt P08684); assay: as above
CYP3A4, sequence (P08684 whole entry): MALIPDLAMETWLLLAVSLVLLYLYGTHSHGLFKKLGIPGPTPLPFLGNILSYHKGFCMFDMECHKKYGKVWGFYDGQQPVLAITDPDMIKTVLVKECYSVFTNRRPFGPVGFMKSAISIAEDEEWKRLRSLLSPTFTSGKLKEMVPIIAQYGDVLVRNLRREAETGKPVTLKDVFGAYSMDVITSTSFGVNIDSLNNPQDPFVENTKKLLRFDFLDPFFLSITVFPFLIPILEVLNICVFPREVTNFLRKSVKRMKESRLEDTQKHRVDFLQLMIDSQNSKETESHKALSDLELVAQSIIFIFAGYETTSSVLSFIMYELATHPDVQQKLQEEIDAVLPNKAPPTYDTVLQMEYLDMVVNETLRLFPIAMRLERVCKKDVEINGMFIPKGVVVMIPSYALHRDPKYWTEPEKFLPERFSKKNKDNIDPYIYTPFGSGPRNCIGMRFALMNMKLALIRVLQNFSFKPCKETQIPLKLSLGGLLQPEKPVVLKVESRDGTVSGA
Procedure: as §1, §2, §3, §4, §5

[1] = Membrane permeability and transport characteristics (Caco-2 Transwell); conditions: human, pH 7.4; for efflux ratio at 2 h, 10 μM: Caco-2, Papp (B-A)/Papp (A-B); for Papp A→B at 2 h, 10 μM: Caco-2, apical to basal; for Papp B→A at 2 h, 10 μM: Caco-2, basal to apical
Procedure: The membrane permeability and transport characteristics of the compounds of the present disclosure were determined by the following experimental method.
• 1. Caco-2 cells (ATCC) • 2. HEPES (Solarbio 804D049), penicillin/streptomycin (Solarbio 20200109) and PBS (Solarbio 20200620) • 3. Fetal bovine serum (FBS) (Sigma WXBD0055V), fluorescein (Sigma MKCJ3738) and NaHCO3 (Sigma SLBZ4647) • 4. Hank's balanced salt solution (HBSS) (Gibco 2085528), non-essential amino acid (NEAA) (Gibco 2211548) and Trypsin/EDTA (Gibco 2120732) • 5. High glucose DMEM (Corning 20319014) • 6. HTS Transwell-96 Well Permeable (Corning, 3391) • 7. Resistance tester (Millipore, Millicell® ERS-2) • 8. Cellometer® Vision (Nexcelom Bioscience) • 9. Infinite 200 PRO microplate reader (Tecan, Infinite M200PRO) • 10. Positive control compounds metoprolol (Sinopharm 100084-201403), erythromycin (MCE 84550) and cimetidine (Sinopharm 100158-201406) • 11. ABI QTrap 5500 liquid chromatography-mass spectrometry
• 1) Transport buffer (HBSS containing 25 mM HEPES, pH 7.4) was prepared: 5.958 g of HEPES and 0.35 g of NaHCO3 were accurately weighed, 900 mL of pure water was added to dissolve same, then 100 mL of 10×HBSS was added, uniform stirring was performed, the pH was adjust to 7.4, and filtering was performed. • 2) Caco-2 cell culture medium was prepared: FBS, penicillin/streptomycin, kanamycin and NEAA were added to high glucose DMEM (containing L-glutamine) medium to prepare a cell culture medium containing 10% FBS, 100 U/mL penicillin/0.1 mg/mL streptomycin, 0.6 μg/mL kanamycin and 1×NEAA. • 3) Cells were cultured in T-75 culture flasks in an incubator at 37° C. and 5% CO2, and the medium was discarded when the cell growth density reached 80-90%. The cells were rinsed with 5 mL of PBS, 1.5 mL of Trypsin/EDTA was added, then the cells were incubated in an incubator at 37° C. for 5-10 min until the cells fell off in the form of quicksand, and finally Trypsin/EDTA was neutralized with an FBS-containing medium. 4) The cell suspension was centrifuged at 120 g for 10 min, and the supernatant was discarded. • 5) The cell culture medium was added to re-suspend the cells to obtain a cell suspension with a density of […] cells/mL.
• 1) 50 μL of medium was added to each well of Transwell chamber, and 25 mL of medium was added to the lower layer. The Transwell chamber was preheated in an incubator at 37° C. and 5% CO2 for 1 h. • 2) 50 μL of the cell suspension was added to each well of the preheated Transwell chamber to a final seeding density of 2.4×10^5 cells/cm. • 3) The cells were cultured for 14-18 days, the medium was changed every other day, and the medium was changed within 48 h after the initial seeding in the plate. The medium must be changed one day before the experiment.
• 1) After 14 days of cell culture, the cells were fused and differentiated, ready for transport experiment. • 2) The resistance of monolayer cell membrane was measured by the resistance tester, and the resistance of each well was recorded. • 3) After the measurement was completed, the Transwell culture plate was re-incubated. • 4) The TEER value was calculated: […]

CYP2C9, sequence (P11712 whole entry): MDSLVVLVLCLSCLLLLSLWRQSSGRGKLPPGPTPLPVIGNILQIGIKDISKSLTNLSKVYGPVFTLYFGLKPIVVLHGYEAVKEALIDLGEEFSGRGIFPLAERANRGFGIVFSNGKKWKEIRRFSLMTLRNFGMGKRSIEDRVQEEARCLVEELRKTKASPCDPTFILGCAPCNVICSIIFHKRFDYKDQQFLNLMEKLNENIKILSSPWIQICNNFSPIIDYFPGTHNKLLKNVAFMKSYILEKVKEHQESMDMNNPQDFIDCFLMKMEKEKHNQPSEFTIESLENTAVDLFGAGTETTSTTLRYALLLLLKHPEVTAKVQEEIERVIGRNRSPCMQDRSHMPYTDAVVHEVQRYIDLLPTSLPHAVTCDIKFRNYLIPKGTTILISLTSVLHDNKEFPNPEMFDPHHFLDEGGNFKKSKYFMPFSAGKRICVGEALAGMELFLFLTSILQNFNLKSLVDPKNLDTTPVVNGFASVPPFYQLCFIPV

| SMILES | IC50 (CYP2C9) | IC50 (CYP2D6; read-out: Inhibition on CYP2D6 IC50, human liver microsomes, substrate dextromethorphan) | IC50 (CYP3A4) | IC50 (CYP2C9; read-out: Inhibition on CYP2C9 IC50, human liver microsomes, substrate diclofenac) | IC50 (CYP2D6) | IC50 (CYP3A4; read-out: Inhibition on CYP3A4 IC50, human liver microsomes, substrate midazolam) | efflux ratio at 2 h, 10 μM [1] | Papp A→B at 2 h, 10 μM [1] | Papp B→A at 2 h, 10 μM [1] |
| --- | --- | --- | --- | --- | --- | --- | --- | --- | --- |
| CC[C@@]1(O)C(=O)OCc2c1cc1n(c2=O)Cc2c-1nc1cc3c(cc1c2CNC(=O)C(O)C1CC1)OCO3 (single isomer, unassigned) [Compound 14-P1] | > 50 µM | > 50 µM | > 50 µM |  |  |  |  |  |  |
| CC[C@@]1(O)C(=O)OCc2c1cc1n(c2=O)Cc2c-1nc1cc3c(cc1c2CNC(=O)C(O)C1CC1)OCO3 (single isomer, unassigned) [Compound 14-P2] |  |  |  | > 50 µM | > 50 µM | > 50 µM |  |  |  |
| CC[C@@]1(O)C(=O)OCc2c1cc1n(c2=O)Cc2c-1nc1cc3c(c(F)c1c2CNC(=O)[C@@H](O)C1CC1)OCO3 (single isomer, unassigned) [Compound 37-P1] | > 50 µM |  | > 50 µM |  | > 50 µM |  |  |  |  |
| CC[C@@]1(O)C(=O)OCc2c1cc1n(c2=O)Cc2c-1nc1cc3c(cc1c2CNC(=O)C(O)C1CC1)OCO3 (stereo partly drawn) [Compound 14, 2-cyclopropyl-N-(((S)-7-ethyl-7-hydroxy-8,11-dioxo-7,8,11,13-tetrahydro-10H-[1,3]dioxolo[4,5-g]pyrano[3′,4′:6,7]indolizino[1,2-b]quinolin-14-yl)methyl)-2-hydroxyacetamide] |  |  |  |  |  |  | 15.2 | 0.26 ×10⁻⁶ cm/s | 3.95 ×10⁻⁶ cm/s |
| [2H]C1([2H])Oc2cc3nc4c(c(CNC(=O)C(O)C5CC5)c3cc2O1)Cn1c-4cc2c(c1=O)COC(=O)[C@]2(O)CC (stereo partly drawn) [Compound 39, 2-cyclopropyl-N-(((S)-7-ethyl-7-hydroxy-8,11-dioxo-7,8,11,13-tetrahydro-10H-[1,3]dioxolo[4,5-g]pyrano[3′,4′:6,7]indolizino[1,2-b]quinolin-14-yl-2,2-d2)methyl)-2-hydroxyacetamide] | > 50 µM |  | > 50 µM |  | > 50 µM |  | 5.9 | 0.71 ×10⁻⁶ cm/s | 4.21 ×10⁻⁶ cm/s |
